{"source": "patent US7678913B2", "about": "“Ureas as factor Xa inhibitors” (Portola Pharmaceuticals, Inc., priority 2004, dated 2010)"}
{"target": "T1, human plasma protein factor Xa (Homo sapiens, UniProt P00742)", "T1 construct": "measure proteolytic activity of the enzyme (factor Xa); purchased Haematologic Technologies (Essex Junction, Vt.); host or cells: human plasma", "T1 sequence (P00742 235-488 limits assumed)": "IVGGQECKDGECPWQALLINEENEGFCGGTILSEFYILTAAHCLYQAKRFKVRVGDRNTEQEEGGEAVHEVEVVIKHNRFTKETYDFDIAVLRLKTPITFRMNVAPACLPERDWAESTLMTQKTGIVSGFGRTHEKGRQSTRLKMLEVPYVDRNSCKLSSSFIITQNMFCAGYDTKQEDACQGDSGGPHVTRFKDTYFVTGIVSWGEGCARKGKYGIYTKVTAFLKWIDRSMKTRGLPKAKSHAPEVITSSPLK", "T1 sequence (P00742 41-179 partner limits assumed)": "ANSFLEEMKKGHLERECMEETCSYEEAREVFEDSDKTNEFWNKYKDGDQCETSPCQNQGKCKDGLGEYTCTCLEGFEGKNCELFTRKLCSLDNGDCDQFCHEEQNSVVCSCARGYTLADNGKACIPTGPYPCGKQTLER", "assay": "Factor Xa IC50 determination (cleavage of chromogenic substrate S-2765)", "assay_type": "biochemical", "conditions": "fXa 1 nM, S-2765 100 μM, Tris buffered saline pH 7.4, room temperature", "description": "This example illustrates methods for evaluating the compounds of the invention, along with results obtained for such assays. The in vitro and in vivo Factor Xa isoform activities of the inventive compounds can be determined by various procedures known in the art, such as a test for their ability to inhibit the activity of the Factor Xa isoform. […] The IC50 value is the concentration (in nM) of the compound required to provide 50% inhibition of Factor Xa isoform.\nAn in vitro assay for detecting and measuring inhibition activity against Factor Xa is as follows:\n• The substrate S-2765 (Z-D-Arg-Gly-Arg-pNA.HCl) was obtained from Diapharma (West Chester, Ohio). Enzyme: • The human plasma protein factor Xa was purchased from Haematologic Technologies (Essex Junction, Vt.). Methods\nAll assays, which are performed in 96-well microtiter plates, measure proteolytic activity of the enzyme (factor Xa) by following cleavage of paranitroanilide substrate. The assay buffer used for proteolytic assays was Tris buffered saline (20 mM Tris, 150 mM NaCl, 5 mM CaCl2, 0.1% Bovine serum albumin (BSA), 5% Dimethly Sulfoxide (DMSO) pH 7.4). In a 96-well microtiter plate, inhibitor was serially diluted to give a range of concentrations from 0.01 nM to 10 μM (final). Duplicate sets of wells were assayed and control wells without inhibitor were included. Enzyme was added to each well,(fXa concentration=1nM), the plate was shaken for 5 seconds and then incubated for 5 minutes at room temperature. S2765 was added (100 μM final) and the plate was shaken for 5 seconds (final liquid volume in each well was 200 μl). The degree of substrate hydrolysis was measured at 405 nm on a Thermomax plate reader (Molecular Devices, Sunnyvale, Calif.) for 2 minutes. The initial velocities (mOD/min), for each range of inhibitor concentrations, were fitted to a four parameter equation using Softmax data analysis software. The parameter C, derived from the resulting curve-fit, corresponded to the concentration for half maximal inhibition (IC50).", "units": {"IC50": "nM"}}
{"smiles": "N=C(c1ccc(NC(=O)C(NC(=O)Nc2ccc(Br)cc2)c2ccccc2F)cc1)N1CCCCC1", "note": "(centres unmarked) [Example 45, N-[4-(piperidin-1-ylimino)phenyl]-2-(2-fluorophenyl)-2-(4-bromophenylaminocarbonylamino)-acetamide]", "IC50": "≤ 100"}
{"smiles": "CN1CCN=C1c1ccc(NC(=O)C(CC(=O)N2CCCCCC2)NC(=O)Nc2ccc(Cl)cc2)cc1", "note": "(centres unmarked) [Example 68, N-[4-(1-methyl-4,5-dihydro-1H-imidazol-2-yl)phenyl]-2-(homopiperidin-1-ylcarbonylmethyl)-2-(4-chlorophenylaminocarbonylamino)-acetamide]", "IC50": "≥ 500"}
{"smiles": "CN1CCN=C1c1ccc(NC(=O)C(Cc2cn(C)c3ccccc23)NC(=O)Nc2ccc(Cl)cc2)cc1", "note": "(centres unmarked) [Example 8, N-[4-(1-methyl-4,5-dihydro-1H-imidazol-2-yl)phenyl]-2-(1-methyl-indol-3-ylmethyl)-2-(4-chlorophenylaminocarbonylamino)-acetamide]", "IC50": "≤ 100"}
{"smiles": "CN1CCN=C1c1ccc(NC(=O)C(NC(=O)Nc2ccc(Cl)cc2)c2ccccc2OC(F)(F)F)cc1", "note": "(centres unmarked) [Example 120, N-[4-(1-methyl-4,5-dihydro-1H-imidazol-2-yl)phenyl]-2-(2-trifluoromethoxyphenyl)-2-(4-chlorophenylaminocarbonylamino)-acetamide]", "IC50": "≤ 100"}
{"smiles": "CN1CCN=C1c1ccc(NC(=O)C(NC(=O)Nc2ccc(Cl)cc2)c2ccccc2Oc2ccccc2)cc1", "note": "(centres unmarked) [Example 124, N-[4-(1-methyl-4,5-dihydro-1H-imidazol-2-yl)phenyl]-2-(2-phenoxyphenyl)-2-(4-chlorophenylaminocarbonylamino)-acetamide]", "IC50": "≤ 100"}
{"smiles": "COc1ccccc1C(NC(=O)Nc1ccc(Cl)cc1)C(=O)N1CCN(C2CCCN(C)CC2)CC1", "note": "(centres unmarked) [Example 153, 4-(1-methylhomopiperidin-4-yl)piperazin-1-yl-2-(2-methoxyphenyl)-2-(4-chlorophenylaminocarbonylamino)-acetamide]", "IC50": "≤ 100"}
{"smiles": "CN1CCC(N2CCN(C(=O)C(NC(=O)Nc3ccc(Cl)cc3)c3ccccc3Br)CC2)CC1", "note": "(centres unmarked) [Example 83]", "IC50": "≤ 100"}
{"smiles": "CN1CCC(N2CCN(C(=O)C(NC(=O)Nc3ccc(Cl)cc3)c3ccccc3F)CC2)CC1", "note": "(centres unmarked) [Example 127]", "IC50": "≤ 100"}
{"smiles": "CN(C)Cc1ccccc1-c1ccc(NC(=O)C(NC(=O)Nc2ccc(Cl)cc2)c2ccccc2F)c(F)c1", "note": "(centres unmarked) [Example 56, N-[4-(2-dimethylaminomethyl-phenyl)-2-fluorophenyl]-2-(2-fluorophenyl)-2-(4-chlorophenylaminocarbonylamino)-acetamide]", "IC50": "≤ 100"}
{"smiles": "CN1CCN=C1c1ccc(NC(=O)C(NC(=O)Nc2ccc(Cl)cc2)(c2ccccc2)c2ccccc2)cc1", "note": "[Example 14, N-[4-(1-methyl-4,5-dihydro-1H-imidazol-2-yl)phenyl]-2,2-diphenyl-2-(4-chlorophenylaminocarbonylamino)-acetamide]", "IC50": "≥ 500"}
{"smiles": "CN(C)Cc1ccccc1-c1ccc(NC(=O)C(NC(=O)Nc2ccc(Cl)cc2)c2ccccc2F)cc1", "note": "(centres unmarked) [Example 55, N-[4-(2-dimethylaminomethyl-phenyl)phenyl]-2-(2-fluorophenyl)-2-(4-chlorophenylaminocarbonylamino)-acetamide]", "IC50": "≤ 100"}
{"smiles": "CN1CCC(N2CCN(C(=O)C(NC(=O)Nc3ccc(Cl)cc3)c3ccccc3I)CC2)CC1", "note": "(centres unmarked) [Example 118]", "IC50": "≤ 100"}
{"smiles": "COc1ccccc1C(NC(=O)Nc1ccc(Cl)cc1)C(=O)Nc1ccc(C(=N)N(C)C)cc1", "note": "(centres unmarked) [Example 112, N-[4-(dimethylaminoimino)phenyl]-2-(2-methoxyphenyl)-2-(4-chlorophenylaminocarbonylamino)-acetamide]", "IC50": "≤ 100"}
{"smiles": "CN1CCN=C1c1ccc(NC(=O)C(NC(=O)Nc2ccc(Cl)cc2)c2ccccc2SC(F)(F)F)cc1", "note": "(centres unmarked) [Example 122, N-[4-(1-methyl-4,5-dihydro-1H-imidazol-2-yl)phenyl]-2-(2-trifluoromethylthiophenyl)-2-(4-chlorophenylaminocarbonylamino)-acetamide]", "IC50": "≤ 100"}
{"smiles": "COc1ccccc1C(NC(=O)Nc1ccc(Cl)cc1)C(=O)NC1CCN(C(C)C)CC1", "note": "(centres unmarked) [Example 110, N-(1-isopropylpiperidin-4-yl)-2-(2-methoxyphenyl)-2-(4-chlorophenylamino-carbonylamino)-acetamide]", "IC50": "≥ 500"}
{"smiles": "CN(C)C(=N)c1ccc(NC(=O)C(NC(=O)Nc2ccc(Cl)cc2)c2ccccc2Br)cc1", "note": "(centres unmarked) [Example 80, N-[4-(dimethylaminoimino)phenyl]-2-(2-bromophenyl)-2-(4-chlorophenylaminocarbonylamino)-acetamide]", "IC50": "≤ 100"}
{"smiles": "CN1CCN=C1c1ccc(N2C(=O)CC(NC(=O)Nc3ccc(Cl)cc3)C2=O)cc1", "note": "(centres unmarked) [Example 72, N-[4-(1-methyl-4,5-dihydro-1H-imidazol-2-yl)phenyl]-3-(4-chlorophenylaminocarbonylamino)-succinimide]", "IC50": "100 to 500"}
{"smiles": "CN1CCN=C1c1ccc(NC(=O)[C@H](NC(=O)Nc2ccc(Cl)cc2)c2ccccc2)cc1", "note": "[Example 32, (2R) N-[4-(1-methyl-4,5-dihydro-1H-imidazol-2-yl)phenyl]-2-phenyl-2-(4-chlorophenylaminocarbonylamino)-acetamide]", "IC50": "≤ 100"}
{"smiles": "N=C(c1ccc(NC(=O)C(NC(=O)Nc2ccc(Cl)cc2)c2ccccc2)cc1)N1CCC1", "note": "(centres unmarked) [Example 28]", "IC50": "≤ 100"}
{"smiles": "CN1CCN=C1c1ccc(NC(=O)C(NC(=O)Nc2ccc(Cl)cc2)c2cccc(Cl)c2)cc1", "note": "(centres unmarked) [Example 74, N-[4-(1-methyl-4,5-dihydro-1H-imidazol-2-yl)phenyl]-2-(3-chlorophenyl)-2-(4-chlorophenylaminocarbonylamino)-acetamide]", "IC50": "≤ 100"}
{"smiles": "C#CCN(C)C(=N)c1ccc(NC(=O)C(NC(=O)Nc2ccc(Cl)cc2)c2ccccc2)c(F)c1", "note": "(centres unmarked) [Example 36, N-[4-(N-methyl-N-propargylaminoimino)-2-fluorophenyl]-2-phenyl-2-(4-chlorophenylaminocarbonylamino)-acetamide]", "IC50": "≤ 100"}
{"smiles": "CN1CCN=C1c1ccc(NC(=O)[C@@H](NC(=O)Nc2ccc(Cl)cc2)c2ccccc2)cc1", "note": "[Example 31, (2S) N-[4-(1-methyl-4,5-dihydro-1H-imidazol-2-yl)phenyl]-2-phenyl-2-(4-chlorophenylaminocarbonylamino)-acetamide]", "IC50": "≤ 100"}
{"smiles": "Cc1ccccc1C(NC(=O)Nc1ccc(Cl)cc1)C(=O)Nc1ccc(C(=O)N2CCOC2)cc1", "note": "(centres unmarked) [Example 98, N-[4-(oxazolidin-3-ylcarbonyl)phenyl]-2-(2-methylphenyl)-2-(4-chlorophenylaminocarbonylamino)-acetamide]", "IC50": "≤ 100"}
{"smiles": "CN1CCN=C1c1ccc(NC(=O)C(CC(C)(C)C)NC(=O)Nc2ccc(Cl)cc2)cc1", "note": "(centres unmarked) [Example 4, N-[4-(1-methyl-4,5-dihydro-1H-imidazol-2-yl)phenyl]-2-(2,2-dimethylpropyl)-2-(4-chlorophenylaminocarbonylamino)-acetamide]", "IC50": "≥ 500"}
{"smiles": "CN1CCN=C1c1ccc(NC(=O)C(NC(=O)Nc2ccc(Cl)cc2)c2ccccc2I)cc1", "note": "(centres unmarked) [Example 114, N-[4-(1-methyl-4,5-dihydro-1H-imidazol-2-yl)phenyl]-2-(2-iodophenyl)-2-(4-chlorophenylaminocarbonylamino)-acetamide]", "IC50": "≤ 100"}
{"smiles": "N=C(c1ccc(NC(=O)C(NC(=O)Nc2ccc(Cl)cc2)c2cccs2)cc1)N1CCCCC1", "note": "(centres unmarked) [Example 22]", "IC50": "≤ 100"}
{"smiles": "O=C(Nc1ccc(Cl)cc1)N[C@@H](C(=O)N1CCC(n2ccccc2=O)CC1)c1ccccc1", "note": "[Example 143, (2R) 4-(2-pyridon-1-yl)piperidin-1-yl-2-phenyl-2-(4-chlorophenylaminocarbonylamino)-acetamide]", "IC50": "≤ 100"}
{"smiles": "Cc1ccccc1C(NC(=O)Nc1ccc(Cl)cc1)C(=O)N1CCC(N2CCOCC2=O)CC1", "note": "(centres unmarked) [Example 147, 4-(3-morpholinon-4-yl)piperidin-1-yl-2-(2-methylphenyl)-2-(4-chlorophenylaminocarbonylamino)-acetamide]", "IC50": "100 to 500"}
{"smiles": "CN(C)C(=N)c1ccc(NC(=O)C(NC(=O)Nc2ccc(Cl)cc2)c2ccccc2)cc1", "note": "(centres unmarked) [Example 23]", "IC50": "≤ 100"}
{"smiles": "C#Cc1ccc(NC(=O)NC(C(=O)Nc2ccc(C3=NCCN3C)cc2)c2cccs2)cc1", "note": "(centres unmarked) [Example 18, N-[4-(1-methyl-4,5-dihydro-1H-imidazol-2-yl)phenyl]-2-(2-thienyl)-2-(4-ethynylphenylaminocarbonylamino)-acetamide]", "IC50": "100 to 500"}
{"smiles": "CSc1ccccc1C(NC(=O)Nc1ccc(Cl)cc1)C(=O)Nc1ccc(-c2cccc[n+]2[O-])cc1", "note": "(centres unmarked) [Example 126, N-[4-(N-oxo-pyridin-2-yl)phenyl]-2-(2-methylthiophenyl)-2-(4-chlorophenylaminocarbonylamino)-acetamide]", "IC50": "≤ 100"}
{"smiles": "CNC(=O)CC(NC(=O)Nc1ccc(Cl)cc1)C(=O)Nc1ccc(C2=NCCN2C)cc1", "note": "(centres unmarked) [Example 70, N-[4-(1-methyl-4,5-dihydro-1H-imidazol-2-yl)phenyl]-2-(methylamino-carbonylmethyl)-2-(4-chlorophenylaminocarbonylamino)-acetamide]", "IC50": "100 to 500"}
